Results taken from patent US10155021B2, “Antimicrobial 4-oxoquinolizines” (Emergent Product Development Gaithersburg Inc., priority 2011, dated 2018).
Values after ≈ are worked out from the molar mass of the structure shown. Where two headings read alike, the source gives them in different places.

Tests used:
[1] = system: A. baumannii A329; test: MIC determination for Acinetobacter strains (Example 3); format: cell-based; conditions: LEV R, CIP R, MRP R, IMP R, AMK R, TET R
[2] = system: A. baumannii A489; test: Preliminary MBC without and with sub-inhibitory polymyxin B (Example 4); format: cell-based, Acinetobacter baumannii; conditions: for MBC +[…] PB: A. baumannii A489, +[…] polymyxin B; for MBC: Acinetobacter baumannii, A489, A. baumannii A489, without polymyxin B, read-out: MBC without PB
[3] = system: Acinetobacter sp. (H064200250); test: MIC without and with sub-inhibitory polymyxin B (Example 4); format: cell-based; conditions: for MIC +[…] PB: +[…] polymyxin B; for MIC without PB/MIC + PB: ratio; for MIC: Acinetobacter, without polymyxin B, read-out: MIC without PB
[4] = system: A. baumannii A329; test: as above; format: cell-based, Acinetobacter baumannii; conditions: for MIC: Acinetobacter baumannii, A329, A. baumannii A329, without polymyxin B, read-out: MIC without PB
[5] = system: A. baumannii J2; test: Preliminary MBC without and with sub-inhibitory polymyxin B (Example 4); format: cell-based, Acinetobacter baumannii; conditions: preliminary MBC; for MBC +[…] PB: A. baumannii J2, +[…] polymyxin B; for MBC: Acinetobacter baumannii, J2, A. baumannii J2, without polymyxin B, read-out: MBC without PB
[6] = system: A. baumannii A472; test: MIC without and with sub-inhibitory polymyxin B (Example 4); format: cell-based, Acinetobacter baumannii; conditions: for MIC +[…] PB: +[…] polymyxin B; for MIC: Acinetobacter baumannii, A472, A. baumannii A472, without polymyxin B, read-out: MIC without PB
[7] = system: A. baumannii A489; test: as above; format: cell-based, Acinetobacter baumannii; conditions: for MIC +[…] PB / MIC without PB/MIC + PB: A. baumannii A489; for MIC +[…] PB: +[…] polymyxin B; for MIC without PB/MIC + PB: ratio; for MIC: Acinetobacter baumannii, A489, A. baumannii A489, without polymyxin B, read-out: MIC without PB
[8] = system: A. baumannii J2; test: as above; format: cell-based, Acinetobacter baumannii; conditions: for MIC +[…] PB / MIC without PB/MIC + PB: A. baumannii J2; for MIC +[…] PB: +[…] polymyxin B; for MIC without PB/MIC + PB: ratio; for MIC: Acinetobacter baumannii, J2, A. baumannii J2, without polymyxin B
[9] = system: A. baumannii A 401; test: MIC determination for Acinetobacter strains (Example 3); format: cell-based; conditions: A401, LEV R, CIP R, AMK R, TET R
[10] = system: A. baumannii A472; test: Preliminary MBC without and with sub-inhibitory polymyxin B (Example 4); format: cell-based, Acinetobacter baumannii; conditions: for MBC +[…] PB: A. baumannii A472, +[…] polymyxin B; for MBC: Acinetobacter baumannii, A472, A. baumannii A472, without polymyxin B, read-out: MBC without PB
[11] = Acinetobacter spp. H064200250 (OXA51), 2nd experiment, visual reading
[12] = Acinetobacter spp. H064200250, 1st experiment

Compound: C[C@@H](O)[C@H]1C(=O)N2C(C(=O)O)=C(SCCN=CN)C[C@H]12 [Imipenem, reference compound]
- MIC [1]: 128 µg/mL (≈ 428 µM)
- MBC +[…] PB ([2]; 1st experiment): 2 µg/mL (≈ 6.68 µM)
- MBC +[…] PB ([2]; 2nd experiment): 0.25 µg/mL (≈ 0.835 µM)
- MBC ([2]; 1st experiment): 64 µg/mL (≈ 214 µM)
- MBC ([2]; 2nd experiment): 64 µg/mL (≈ 214 µM)
- MIC +[…] PB [3, 11]: 0.5 µg/mL (≈ 1.67 µM)
- MIC without PB/MIC + PB ([3]; Acinetobacter spp. H064200250 (OXA51), 2nd experiment): 16
- MIC +[…] PB [3, 12]: 0.5 µg/mL (≈ 1.67 µM)
- MIC without PB/MIC + PB [3, 12]: 32
- MIC [3, 11]: 8 µg/mL (≈ 26.7 µM)
- MIC [3, 12]: 16 µg/mL (≈ 53.4 µM)
- MIC +0.06 μg/ml PB ([4]; A. baumannii A329, +0.06 μg/ml polymyxin B, 2nd experiment, visual reading): 128 µg/mL
- MIC without PB/MIC + PB ([4]; A. baumannii A329, ratio, PB 0.06 μg/ml, 2nd experiment): ≥1
- MIC ([4]; 1st experiment): 128 µg/mL (≈ 428 µM)
- MIC ([4]; 2nd experiment, visual reading): > 128 µg/mL
- MBC +[…] PB ([5]; 2nd experiment): ≤0.125 µg/mL
- MBC +[…] PB ([5]; 1st experiment): ≤0.125 µg/mL
- MBC ([5]; 2nd experiment): 8 µg/mL (≈ 26.7 µM)
- MBC ([5]; 1st experiment): 4 µg/mL (≈ 13.4 µM)
- MIC +[…] PB ([6]; A. baumannii A472, 1st experiment): 0.25 µg/mL (≈ 0.835 µM)
- MIC +[…] PB ([6]; A. baumannii A472, 2nd experiment, visual reading): 0.25 µg/mL (≈ 0.835 µM)
- MIC ratio without/with polymyxin B ([6]; A. baumannii A472, ratio MIC without PB to MIC + PB, PB […], 2nd experiment): 32 µg/mL
- MIC without PB/MIC + PB ([6]; A. baumannii A472, ratio, PB […], 1st experiment): 64
- MIC ([6]; 1st experiment): 16 µg/mL (≈ 53.4 µM)
- MIC ([6]; 2nd experiment, visual reading): 8 µg/mL (≈ 26.7 µM)
- MIC +[…] PB ([7]; 1st experiment): 2 µg/mL (≈ 6.68 µM)
- MIC +[…] PB ([7]; 2nd experiment, visual reading): 0.25 µg/mL (≈ 0.835 µM)
- MIC without PB/MIC + PB ([7]; 1st experiment): 64
- MIC without PB/MIC + PB ([7]; 2nd experiment): 256
- MIC ([7]; 1st experiment): 128 µg/mL (≈ 428 µM)
- MIC ([7]; 2nd experiment, visual reading): 64 µg/mL (≈ 214 µM)
- MIC +[…] PB ([8]; 1st experiment): ≤0.125 µg/mL
- MIC +[…] PB ([8]; 2nd experiment, visual reading): ≤0.125 µg/mL
- MIC without PB/MIC + PB ([8]; 1st experiment): ≥32
- MIC without PB/MIC + PB ([8]; 2nd experiment): ≥64
- MIC ([8]; 1st experiment, read-out: MIC without PB): 4 µg/mL (≈ 13.4 µM)
- MIC ([8]; 2nd experiment, MIC read with alamar blue, read-out: MIC without PB, read with alamar blue): 4 µg/mL (≈ 13.4 µM)
- MIC ([8]; 2nd experiment, visual reading, read-out: MIC without PB): 8 µg/mL (≈ 26.7 µM)
- MIC [9]: 32 µg/mL (≈ 107 µM)
- MBC +[…] PB ([10]; 1st experiment): 0.25 µg/mL (≈ 0.835 µM)
- MBC +[…] PB ([10]; 2nd experiment): 0.25 µg/mL (≈ 0.835 µM)
- MBC ([10]; 1st experiment): 16 µg/mL (≈ 53.4 µM)
- MBC ([10]; 2nd experiment): 8 µg/mL (≈ 26.7 µM)
